In patent publication US20260226037A1, “MICROTUBULE TARGETING AGENTS” (ARIEL SCIENTIFIC INNOVATIONS LTD., priority 2022, published 2026):
Like-named read-outs stand apart in the source and are kept apart here.

Experiments:
MM1.S cells = assay: XTT cytotoxicity, MM1.S; assay type: cell-based; conditions: Homo sapiens
Description: (§1) The cytotoxic activity of the novel family was evaluated against various tumor cells, including myeloma cells, acute lymphoblastic leukemia cells, acute monocytic leukemia cells, chronic myelogenous leukemia cells, pancreatic cancer cells, breast cancer cells, uterine sarcoma cells, cervix adenocarcinoma cells, ovary cancer cells, melanoma cells, osteosarcoma cells, prostate cancer cells, lung cancer cells, neuroblastoma cells and colorectal adenocarcinoma cells by XTT assay.

MES-SA/DX5 cells = assay: XTT cytotoxicity, MES-SA/DX5; assay type: cell-based; conditions: for IC50: Homo sapiens, MES-SA/DX5, uterine sarcoma, P-gp overexpression; for IC50 ratio between resistant and non-resistant cells: MES-SA/DX5 / MES-SA
Description: as §1

MM1.R cells = assay: XTT cytotoxicity, MM1.R; assay type: cell-based; conditions: for IC50 ratio between resistant and non-resistant cells: MM1.R / MM1.S; for IC50: MM.1R
Description: as §1

NALM6 cells = assay: XTT cytotoxicity, NALM6; assay type: cell-based; conditions: Homo sapiens, NALM-6
Description: as §1
(§2) Most tubulin-binding anticancer drugs currently used in the clinic are substrates for Pgp effux pump. […] The inventors tested the viability of NALM6 acute lymphoblastic leukemia cell line (ALL) and its corresponding doxorubicin resistant N6/ADR cell line that overexpress Pgp glycoprotein and has cross-resistance to vincristine.

RPMI 8226 cells = assay: XTT cytotoxicity, RPMI 8226; assay type: cell-based; conditions: Homo sapiens
Description: as §1

MCF7-VP cells = assay: XTT cytotoxicity, MCF7-VP; assay type: cell-based; conditions: for IC50: Homo sapiens, MCF7-VP, breast adenocarcinoma, MRP overexpression; for IC50 ratio between resistant and non-resistant cells: MCF7-VP / MCF7
Description: as §1

RPMI-MR20 cells = assay: XTT cytotoxicity, RPMI-MR20; assay type: cell-based; conditions: for IC50 ratio between resistant and non-resistant cells: RPMI-MR20 / RPMI 8226
Description: as §1

MES-SA cells = assay: XTT cytotoxicity, MES-SA; assay type: cell-based; conditions: Homo sapiens, poorly differentiated uterine sarcoma, non-resistant
Description: as §1

RPMI8226 cells = assay: Cell cycle distribution by flow cytometry; assay type: cell-based; conditions: 6 hours; IC50, IC50x2.5 and IC50x5 concentrations
Description: Cell cycle arrest is a shared consequence of MTAs treatment. The effects of cell cycle distribution were determined in RPMI8226 cells treated for 6 and 18 hours with a range of concentrations of the molecules. The cells were stained with propidium iodide and cell cycle distribution was measured using a cytoFLEX flow cytometer.

purified tubulin = assay: Tubulin polymerization, cell-free assay; assay type: biochemical; conditions: tubulin 2.00 mg/mL; 1, 15 and 30 μM; 37° C., 100 min; vs vehicle
Description: The effect of the compounds on their ability to inhibit tubulin polymerization, was tested against a vehicle control by evaluating polymerization of purified tubulin in a cell-free assay where tubulin (2.00 mg/mL) was exposed to vehicle control or 1, 15 and 30 μM of the compounds (n=2). Polymerizations were tracked by an increase in fluorescence excitation wavelength is 340-360 nm and emission wavelength at 410-460 nm. Fluorescence was monitored at 37° C. every 30 sec for 100 min.

RPMI-LR5 cells = assay: XTT cytotoxicity, RPMI-LR5; assay type: cell-based; conditions: for IC50 ratio between resistant and non-resistant cells: RPMI-LR5 / RPMI 8226
Description: as §1

[1] = tested on: colchicine binding site on tubulin protein; assay: EBI competition assay, RPMI-8226 cells; assay type: cell-based; conditions: RPMI-8226 living cells
RPMI-DOX40 cells = assay: XTT cytotoxicity, RPMI-DOX40; assay type: cell-based; conditions: for IC50 ratio between resistant and non-resistant cells: RPMI-DOX40 / RPMI 8226
Description: as §1

N6/ADR cells = assay: XTT cytotoxicity, N6/ADR; assay type: cell-based; conditions: for IC50 ratio between resistant and non-resistant cells: N6/ADR / NALM6
Description: as §1, §2

MCF7 cells = assay: XTT cytotoxicity, MCF7; assay type: cell-based; conditions: Homo sapiens; MCF7, breast adenocarcinoma, non-resistant
Description: as §1

RPMI8226 myeloma cells = assay: Xenograft murine myeloma model, antitumor efficacy; assay type: in vivo, mice
Description: In vivo anti-cancer efficacy of the molecules was evaluated in a xenograft murine myeloma model. Male SCID mice (6-8 weeks old) were maintained in accordance with Institutional Animal Care Use Committee guidelines. Mice were housed in the Animal Research Facility of Ariel University and experiments were performed in accordance with approved protocols. […] Mice were sacrificed when mean tumor volume of vehicle treated group reached 1500 mm3, or mice appeared moribund to prevent unnecessary morbidity. Mean tumor volume represents the average of tumor volume in each treatment group during the experiment. The weight of the tumors was measured at the end of the experiment and expressed as mean tumor weight per group. Body weight is expressed as mean body mice weight per group. The individual relative tumor volume (RTV) was defined as Vx/V1, where Vx is the mean tumor volume in mm3 at a given time and V1 at the start of treatment. Relative tumor volume is determined by calculating RTV (%) (mean RTV of treated group)/(mean RTV of control group)). Relative tumor volume inhibition is determined by calculating RTVI (%) (1-RTV %)

[2] = Xenograft murine myeloma model, body weight and toxicity signs; assay type: in vivo; conditions: during the experiment
Description: In vivo anti-cancer efficacy of the molecules was evaluated in a xenograft murine myeloma model. Male SCID mice (6-8 weeks old) were maintained in accordance with Institutional Animal Care Use Committee guidelines. Mice were housed in the Animal Research Facility of Ariel University and experiments were performed in accordance with approved protocols. During the experiment, RPMI8226 myeloma cells in exponential growth were harvested from culture, washed three times with sterile PBS, counted and resuspended in sterile PBS (1.5×10^7cells mouse/0.1 ml PBS) and subcutaneously injected on the right flank of male C.B-17/IcrHsd-Prkdc-scid, […] mice. After two weeks of cells injection, when tumors reached a size between 30-60 mm3, mice were assigned into different groups (n=3-5) and started receiving treatment. Body weights were determined twice weekly along with tumor volume {V=[length×(width)2]/2}measurements using electronical caliper. Mice were sacrificed when mean tumor volume of vehicle treated group reached 1500 mm3, or mice appeared moribund to prevent unnecessary morbidity.
The weight of the tumors was measured at the end of the experiment and expressed as mean tumor weight per group. Body weight is expressed as mean body mice weight per group.

CCCCCOC(=O)c1[nH]c2c(c1C)C(O)CC(c1ncco1)C2 (stereo not shown) [SMS108, pentyl-4-hydroxy-3-methyl-6-(oxazol-2-yl)-4,5,6,7-tetrahydro-1H-indole-2-carboxylate]
IC50 (MM1.S cells; multiple myeloma, non-resistant, read-out: IC50): 735 nM
IC50 (MES-SA/DX5 cells): 490 nM
IC50 ratio between resistant and non-resistant cells (MES-SA/DX5 cells): 0.700
IC50 ratio between resistant and non-resistant cells (MM1.R cells): 1.633
IC50 (MM1.R cells; MM1.R, multiple myeloma, dexamethasone resistant, read-out: IC50): 1200 nM
IC50 (NALM6 cells; NALM6, acute lymphoblastic leukemia, non-resistant, read-out: IC50): 345 nM
IC50 (RPMI 8226 cells; RPMI 8226, multiple myeloma, non-resistant, read-out: IC50): 516 nM
IC50 (MCF7-VP cells): 5900 nM
IC50 ratio between resistant and non-resistant cells (MCF7-VP cells): 0.828
IC50 (RPMI-MR20 cells; RPMI-MR20, mitoxantrone resistant, read-out: IC50): 388 nM
IC50 ratio between resistant and non-resistant cells (RPMI-MR20 cells): 0.752
IC50 (MES-SA cells): 700 nM
cell cycle arrest (RPMI8226 cells): cell cycle arrest in G2M phase
rate of tubulin polymerization (purified tubulin): inhibited the rate of tubulin polymerization in a concentration-dependent manner
IC50 (RPMI-LR5 cells; RPMI-LR5, multiple myeloma, melphalan resistant, read-out: IC50): 427 nM
IC50 ratio between resistant and non-resistant cells (RPMI-LR5 cells): 0.828
prevention of covalent binding of EBI to the colchicine binding site [1]: did not prevent the covalent binding of EBI to the colchicine binding site
IC50 (RPMI-DOX40 cells; RPMI-DOX40, multiple myeloma, P-gp overexpression, read-out: IC50): 498 nM
IC50 ratio between resistant and non-resistant cells (RPMI-DOX40 cells): 0.965
IC50 ratio between resistant and non-resistant cells (N6/ADR cells): 0.957
IC50 (N6/ADR cells; N6/ADR, acute lymphoblastic leukemia, P-gp overexpression, read-out: IC50): 330 nM
IC50 (MCF7 cells): 7120 nM

Cc1c(C(=O)OCCCCN)oc2c1C(=O)CC(c1ncco1)C2.Cl (stereo not shown) [SMS228, 4-((3-methyl-6-(oxazol-2-yl)-4-oxo-4,5,6,7-tetrahydrobenzofuran-2-carbonyl)oxy)butan-1-aminium chloride]
IC50 (MM1.S cells): 4430 nM
IC50 (MES-SA/DX5 cells): 7410 nM
IC50 ratio between resistant and non-resistant cells (MES-SA/DX5 cells): 0.778
IC50 ratio between resistant and non-resistant cells (MM1.R cells): >0.406
IC50 (MM1.R cells): > 1800 nM
IC50 (NALM6 cells): 350 nM
IC50 (RPMI 8226 cells; RPMI-8226): 1530 nM
IC50 (MCF7-VP cells): 12300 nM
IC50 ratio between resistant and non-resistant cells (MCF7-VP cells): 1.400
IC50 (RPMI-MR20 cells): 2230 nM
IC50 ratio between resistant and non-resistant cells (RPMI-MR20 cells): >1.454
Relative tumor volume inhibition (RPMI8226 myeloma cells; 15 mg/kg intraperitoneally, after 21 days): 20%
Relative tumor volume inhibition (RPMI8226 myeloma cells; 30 mg/kg intraperitoneally, after 21 days): 23%
growth inhibition rate (tumor weight at end of experiment) (RPMI8226 myeloma cells; 30 mg/kg subcutaneously): 70%
Relative tumor volume inhibition (RPMI8226 myeloma cells; 30 mg/kg subcutaneously, after 19 days): 45%
tumor volume lower in the treated group vs vehicle (RPMI8226 myeloma cells; 30 mg/kg subcutaneously, beginning of the experiment): 56%
tumor volume lower in the treated group vs vehicle (RPMI8226 myeloma cells; 30 mg/kg subcutaneously, day 21): 76%
Relative tumor volume inhibition (RPMI8226 myeloma cells; 50 mg/kg intraperitoneally, after 21 days): 42%
decrease of tumor volume as compared to vehicle at the same day (RPMI8226 myeloma cells; 50 mg/kg intraperitoneally, day 7 to 19): 30%
decrease of tumor volume as compared to vehicle at the same day (RPMI8226 myeloma cells; 50 mg/kg intraperitoneally, day 21): 40%
growth inhibition rate (tumor weight at end of experiment) (RPMI8226 myeloma cells; intraperitoneally): 44%
IC50 (MES-SA cells): 9520 nM
cell cycle arrest (RPMI8226 cells): cell cycle arrest in G2M phase
IC50 (RPMI-LR5 cells): 1300 nM
IC50 ratio between resistant and non-resistant cells (RPMI-LR5 cells): 0.847
prevention of covalent binding of EBI to the colchicine binding site [1]: did not prevent the covalent binding of EBI to the colchicine binding site
IC50 (RPMI-DOX40 cells): 1310 nM
IC50 ratio between resistant and non-resistant cells (RPMI-DOX40 cells): 0.853
IC50 (N6/ADR cells): 360 nM
IC50 ratio between resistant and non-resistant cells (N6/ADR cells): 1.029
body weight and other signs of potential toxicity ([2]; 30 mg/kg subcutaneously): No significant changes in body weight or other signs of potential toxicity
body weight and other signs of potential toxicity ([2]; intraperitoneally): No significant changes in body weight or other signs of potential toxicity
IC50 (MCF7 cells): 8810 nM
